Here are results for one compound from ChEMBL document CHEMBL1129915, “A novel RGD containing dodecapeptidomimetic which exhibits selective binding to the v3 receptor” (Bioorg Med Chem Lett, 1997).

Holding throughout (type): protein-complex assay
The target of assay [1] is Fibronectin receptor (Integrin alpha-5/beta-1 and alpha-V/beta-3) (Homo sapiens) (UniProt P05106+P05556+P06756+P08648). As to the kind of experiment: Binding to Fibronectin receptor on vitronectin coated microtiter plates.
Assay [2] deals with Integrin alpha-IIb/beta-3 (Homo sapiens) (UniProt P05106+P08514). As to the kind of experiment: Binding to IIb/IIIa on vitronectin coated microtiter plates in ELISA.
For assay [3], the target named is Integrin alpha-V/beta-3 (Homo sapiens) (UniProt P05106+P06756). Kind of assay: Binding to Vitronectin receptor (alphaV-beta3) of PMA stimulated human-derived B lymphocyte on vitronectin coated microtiter plates.
The target of assay [4] is Integrin alpha-V/beta-5 (Homo sapiens) (UniProt P06756+P18084). Kind of assay: Binding to Vitronectin receptor (alphaV-beta5) coated microtiter plates.

Sequence of Fibronectin receptor (Integrin alpha-5/beta-1 and alpha-V/beta-3) (Homo sapiens) (P05106 whole entry, looked up): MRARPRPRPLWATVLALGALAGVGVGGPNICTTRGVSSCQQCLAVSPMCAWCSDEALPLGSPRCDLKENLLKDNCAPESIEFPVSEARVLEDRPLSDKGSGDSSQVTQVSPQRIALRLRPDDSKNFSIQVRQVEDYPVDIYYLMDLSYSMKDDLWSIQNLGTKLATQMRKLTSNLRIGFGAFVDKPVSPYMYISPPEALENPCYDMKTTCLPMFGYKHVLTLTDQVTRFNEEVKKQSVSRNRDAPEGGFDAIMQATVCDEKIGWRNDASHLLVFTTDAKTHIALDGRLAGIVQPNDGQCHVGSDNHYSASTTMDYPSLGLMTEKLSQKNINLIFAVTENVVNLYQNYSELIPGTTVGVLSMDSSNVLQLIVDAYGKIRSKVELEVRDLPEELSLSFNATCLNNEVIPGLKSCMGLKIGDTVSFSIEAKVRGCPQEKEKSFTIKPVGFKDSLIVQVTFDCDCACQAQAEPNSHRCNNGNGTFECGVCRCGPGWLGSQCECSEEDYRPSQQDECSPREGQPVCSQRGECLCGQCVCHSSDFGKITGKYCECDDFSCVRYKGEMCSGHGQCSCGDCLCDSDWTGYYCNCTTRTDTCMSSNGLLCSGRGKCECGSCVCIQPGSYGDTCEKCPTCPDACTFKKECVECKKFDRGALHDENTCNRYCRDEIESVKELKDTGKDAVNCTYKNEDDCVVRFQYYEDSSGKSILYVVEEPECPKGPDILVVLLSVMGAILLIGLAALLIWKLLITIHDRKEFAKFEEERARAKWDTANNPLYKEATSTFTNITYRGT
Sequence of Fibronectin receptor (Integrin alpha-5/beta-1 and alpha-V/beta-3) (Homo sapiens) (P05556 whole entry, looked up): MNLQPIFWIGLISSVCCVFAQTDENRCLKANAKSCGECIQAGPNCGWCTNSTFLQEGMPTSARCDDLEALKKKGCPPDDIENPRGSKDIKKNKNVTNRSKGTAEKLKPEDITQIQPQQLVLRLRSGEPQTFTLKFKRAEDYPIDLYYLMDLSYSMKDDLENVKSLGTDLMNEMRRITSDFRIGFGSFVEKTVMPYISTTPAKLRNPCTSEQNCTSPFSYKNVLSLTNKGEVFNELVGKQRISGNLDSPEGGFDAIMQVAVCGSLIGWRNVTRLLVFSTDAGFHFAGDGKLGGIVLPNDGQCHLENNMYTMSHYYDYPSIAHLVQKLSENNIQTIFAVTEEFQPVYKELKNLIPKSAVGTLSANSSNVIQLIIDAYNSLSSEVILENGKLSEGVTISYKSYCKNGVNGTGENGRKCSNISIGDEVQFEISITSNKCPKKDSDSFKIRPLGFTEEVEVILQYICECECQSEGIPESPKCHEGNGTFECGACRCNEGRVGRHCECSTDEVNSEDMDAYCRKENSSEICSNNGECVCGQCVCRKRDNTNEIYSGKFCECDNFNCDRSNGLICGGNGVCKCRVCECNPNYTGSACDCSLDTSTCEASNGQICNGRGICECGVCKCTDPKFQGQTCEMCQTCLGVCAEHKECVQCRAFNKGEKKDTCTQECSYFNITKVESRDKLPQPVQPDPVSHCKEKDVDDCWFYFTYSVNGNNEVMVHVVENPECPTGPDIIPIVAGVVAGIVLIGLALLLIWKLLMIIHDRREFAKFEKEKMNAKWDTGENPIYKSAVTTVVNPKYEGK
Sequence of Fibronectin receptor (Integrin alpha-5/beta-1 and alpha-V/beta-3) (Homo sapiens) (P06756 whole entry, looked up): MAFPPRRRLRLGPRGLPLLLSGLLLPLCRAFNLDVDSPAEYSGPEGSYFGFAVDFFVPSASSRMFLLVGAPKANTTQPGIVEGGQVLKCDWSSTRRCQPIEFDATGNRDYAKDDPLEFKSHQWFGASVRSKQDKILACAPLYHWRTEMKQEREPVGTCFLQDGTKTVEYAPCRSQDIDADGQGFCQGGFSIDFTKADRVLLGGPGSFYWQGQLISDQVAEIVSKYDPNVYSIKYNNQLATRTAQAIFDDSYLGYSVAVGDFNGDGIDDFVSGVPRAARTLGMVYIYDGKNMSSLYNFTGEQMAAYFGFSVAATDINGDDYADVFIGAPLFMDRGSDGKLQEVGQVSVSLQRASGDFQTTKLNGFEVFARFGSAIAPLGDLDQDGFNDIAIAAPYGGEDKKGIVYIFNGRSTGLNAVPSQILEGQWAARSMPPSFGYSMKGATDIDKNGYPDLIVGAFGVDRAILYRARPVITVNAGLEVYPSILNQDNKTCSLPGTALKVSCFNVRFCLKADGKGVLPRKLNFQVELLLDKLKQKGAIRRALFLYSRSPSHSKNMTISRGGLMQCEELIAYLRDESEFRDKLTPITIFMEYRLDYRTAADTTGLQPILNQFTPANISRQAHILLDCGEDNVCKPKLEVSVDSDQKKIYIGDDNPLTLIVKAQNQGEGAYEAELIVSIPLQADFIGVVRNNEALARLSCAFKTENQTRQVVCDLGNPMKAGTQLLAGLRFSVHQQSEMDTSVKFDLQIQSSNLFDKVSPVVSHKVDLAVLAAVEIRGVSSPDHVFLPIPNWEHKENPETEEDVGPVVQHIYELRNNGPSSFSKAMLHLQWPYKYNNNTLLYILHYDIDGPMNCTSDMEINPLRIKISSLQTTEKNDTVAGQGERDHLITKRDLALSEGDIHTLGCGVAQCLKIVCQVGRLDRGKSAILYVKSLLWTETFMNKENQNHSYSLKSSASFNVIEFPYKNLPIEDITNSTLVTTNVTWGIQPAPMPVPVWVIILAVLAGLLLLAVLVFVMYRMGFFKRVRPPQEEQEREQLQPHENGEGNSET
Sequence of Fibronectin receptor (Integrin alpha-5/beta-1 and alpha-V/beta-3) (Homo sapiens) (P08648 whole entry, looked up): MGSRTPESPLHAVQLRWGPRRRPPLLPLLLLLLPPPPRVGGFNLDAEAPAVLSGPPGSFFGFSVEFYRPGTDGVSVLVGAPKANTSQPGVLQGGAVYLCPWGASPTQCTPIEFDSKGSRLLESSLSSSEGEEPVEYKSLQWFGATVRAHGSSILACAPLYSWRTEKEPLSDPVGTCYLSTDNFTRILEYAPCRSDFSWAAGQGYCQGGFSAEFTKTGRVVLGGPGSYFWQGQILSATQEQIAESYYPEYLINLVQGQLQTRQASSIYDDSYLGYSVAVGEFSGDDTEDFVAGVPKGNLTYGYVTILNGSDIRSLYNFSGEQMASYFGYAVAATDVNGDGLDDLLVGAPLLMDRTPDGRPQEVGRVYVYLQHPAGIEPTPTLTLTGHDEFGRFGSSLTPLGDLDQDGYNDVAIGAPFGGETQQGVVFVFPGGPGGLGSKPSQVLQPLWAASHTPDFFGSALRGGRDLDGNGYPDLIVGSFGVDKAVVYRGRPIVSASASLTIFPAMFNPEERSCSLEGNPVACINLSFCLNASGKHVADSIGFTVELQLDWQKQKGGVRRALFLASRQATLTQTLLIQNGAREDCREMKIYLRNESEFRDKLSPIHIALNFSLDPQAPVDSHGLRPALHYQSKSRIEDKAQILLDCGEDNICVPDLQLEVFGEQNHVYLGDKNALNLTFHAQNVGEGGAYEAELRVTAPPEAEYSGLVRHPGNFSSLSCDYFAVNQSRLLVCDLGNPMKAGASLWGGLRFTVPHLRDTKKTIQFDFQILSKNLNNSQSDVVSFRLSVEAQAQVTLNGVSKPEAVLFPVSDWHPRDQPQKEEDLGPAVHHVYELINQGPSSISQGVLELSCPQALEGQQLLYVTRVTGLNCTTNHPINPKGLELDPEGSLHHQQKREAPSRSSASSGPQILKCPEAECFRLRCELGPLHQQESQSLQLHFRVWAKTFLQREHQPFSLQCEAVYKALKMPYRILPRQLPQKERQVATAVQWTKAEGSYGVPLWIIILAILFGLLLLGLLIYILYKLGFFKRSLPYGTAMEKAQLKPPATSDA

Consider `NCC(=O)N[C@@H](CCCN=C(N)N)C(=O)NCC(=O)N[C@@H](CC(=O)O)C(=O)N[C@@H](CO)C(=O)N1CCC[C@H]1C(=O)O`, for which the Binding activity in assay [1] was found to be 0.02 µM; in assay [2] it was 0.8 µM; in assay [3] it was 50 µM; in assay [4], 0.582 µM.
